# According to patent US20180291353A1, “MONOFUNCTIONAL ALDEHYDE AND ALCOHOL DEHYDROGENASES FOR PRODUCTION OF FUELS AND COMMODITY CHEMICALS” (The Regents of the University of California, priority 2015, published 2018):
# Assays:
# [1] = target: T1, AdhE2-ADH (alcohol dehydrogenase domain of bifunctional AdhE2, wild type, GI 499193180, SEQ ID NO: 41) (Clostridium acetobutylicum, UniProt Q9ANR5); assay: In vitro kinetics of aldehyde/alcohol dehydrogenases, oxidation of NADH at 340 nm (alcohol dehydrogenase domain of AdhE2); type: biochemical
# T1 construct: alcohol dehydrogenase activity (C-terminal domain) measured
# T1 sequence (Q9ANR5 1-858): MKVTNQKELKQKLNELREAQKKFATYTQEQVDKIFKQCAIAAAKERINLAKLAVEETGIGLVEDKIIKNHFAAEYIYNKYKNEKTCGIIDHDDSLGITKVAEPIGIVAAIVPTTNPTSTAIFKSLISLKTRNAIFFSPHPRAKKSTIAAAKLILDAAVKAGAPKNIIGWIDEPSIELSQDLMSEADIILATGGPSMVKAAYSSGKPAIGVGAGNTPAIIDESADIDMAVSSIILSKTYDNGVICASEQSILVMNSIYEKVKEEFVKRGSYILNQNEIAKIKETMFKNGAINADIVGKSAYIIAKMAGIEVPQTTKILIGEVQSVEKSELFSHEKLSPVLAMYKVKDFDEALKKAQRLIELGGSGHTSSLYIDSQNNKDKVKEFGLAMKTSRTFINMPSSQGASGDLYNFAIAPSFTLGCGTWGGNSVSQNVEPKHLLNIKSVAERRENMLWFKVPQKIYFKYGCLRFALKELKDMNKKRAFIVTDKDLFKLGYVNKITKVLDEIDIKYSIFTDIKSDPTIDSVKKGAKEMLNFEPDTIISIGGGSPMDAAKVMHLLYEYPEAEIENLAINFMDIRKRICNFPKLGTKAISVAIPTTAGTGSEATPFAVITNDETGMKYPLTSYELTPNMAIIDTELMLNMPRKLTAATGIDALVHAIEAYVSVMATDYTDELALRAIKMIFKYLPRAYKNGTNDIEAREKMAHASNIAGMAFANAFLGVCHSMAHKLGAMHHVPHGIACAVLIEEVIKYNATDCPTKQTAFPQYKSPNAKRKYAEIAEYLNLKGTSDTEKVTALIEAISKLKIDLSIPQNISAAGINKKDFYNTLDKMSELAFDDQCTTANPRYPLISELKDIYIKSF
# Procedure: (§1) Activity of ALDH proteins was measured by monitoring the oxidation of NADH at 340 nm at 30° C. The assay mixture (400 μL) contained 100 μM NADH in 100 mM Tris 1 mM DTT pH 7.5. The reaction was initiated by the addition of substrate. Kinetic parameters (kcat, KM) were determined by fitting the data using Microcal Origin to the equation: vo=vmax [S]/(KM+[S]), where v is the initial rate and [S] is the substrate concentration. Data are reported as mean±s.e. (n=3) unless otherwise noted with standard error derived from the nonlinear curve fitting. Error bars on graphs represent mean±s.d. (n=3). Error in kcat/KM is calculated by propagation of error from the individual kinetic parameters.
# (§2) To further explore the potential for expressing monofunctional aldehyde and alcohol dehydrogenases in host cells for the production of alcohols, various aldehyde and alcohol dehydrogenases were purified and isolated to investigate their in vitro kinetic behavior with various C4 and C2 substrates. In particular, the monofunctional aldehyde dehydrogenase identified in FIG. 3 above (GI 150018649, also referred to as ALDH16) was purified (FIG. 4A and FIG. 4B) and the in vitro kinetic behavior of a purified Strep-ALDH16 protein with various C4 and C2 substrates was tested.
# [2] = target: T2, ALDH16 (monofunctional aldehyde dehydrogenase, GI 150018649, SEQ ID NO: 16; Strep-ALDH16) (Clostridium diolis, UniProt A0AAV3W6M8); assay: In vitro kinetics of aldehyde/alcohol dehydrogenases, oxidation of NADH at 340 nm (purified Strep-ALDH16); type: biochemical
# T2 sequence (A0AAV3W6M8 1-468): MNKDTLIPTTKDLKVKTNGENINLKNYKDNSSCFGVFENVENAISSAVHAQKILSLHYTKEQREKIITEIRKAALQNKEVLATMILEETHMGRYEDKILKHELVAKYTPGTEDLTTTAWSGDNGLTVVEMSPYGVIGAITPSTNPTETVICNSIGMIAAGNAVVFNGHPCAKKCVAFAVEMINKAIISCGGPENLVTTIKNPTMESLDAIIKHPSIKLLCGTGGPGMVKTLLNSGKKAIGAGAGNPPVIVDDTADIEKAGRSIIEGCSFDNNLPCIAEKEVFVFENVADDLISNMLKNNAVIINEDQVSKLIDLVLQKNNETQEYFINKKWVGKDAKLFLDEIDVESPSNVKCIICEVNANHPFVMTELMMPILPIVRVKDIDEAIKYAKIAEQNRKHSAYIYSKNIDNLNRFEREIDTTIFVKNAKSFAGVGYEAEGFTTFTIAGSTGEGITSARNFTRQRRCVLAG
# Procedure: as §1, §2
# [3] = target: T3, AdhE2-ALDH (aldehyde dehydrogenase domain of bifunctional AdhE2, wild type, GI 499193180, SEQ ID NO: 41) (Clostridium acetobutylicum, UniProt Q9ANR5); assay: In vitro kinetics of aldehyde/alcohol dehydrogenases, oxidation of NADH at 340 nm (aldehyde dehydrogenase domain of AdhE2)
# T3 sequence (Q9ANR5 1-858): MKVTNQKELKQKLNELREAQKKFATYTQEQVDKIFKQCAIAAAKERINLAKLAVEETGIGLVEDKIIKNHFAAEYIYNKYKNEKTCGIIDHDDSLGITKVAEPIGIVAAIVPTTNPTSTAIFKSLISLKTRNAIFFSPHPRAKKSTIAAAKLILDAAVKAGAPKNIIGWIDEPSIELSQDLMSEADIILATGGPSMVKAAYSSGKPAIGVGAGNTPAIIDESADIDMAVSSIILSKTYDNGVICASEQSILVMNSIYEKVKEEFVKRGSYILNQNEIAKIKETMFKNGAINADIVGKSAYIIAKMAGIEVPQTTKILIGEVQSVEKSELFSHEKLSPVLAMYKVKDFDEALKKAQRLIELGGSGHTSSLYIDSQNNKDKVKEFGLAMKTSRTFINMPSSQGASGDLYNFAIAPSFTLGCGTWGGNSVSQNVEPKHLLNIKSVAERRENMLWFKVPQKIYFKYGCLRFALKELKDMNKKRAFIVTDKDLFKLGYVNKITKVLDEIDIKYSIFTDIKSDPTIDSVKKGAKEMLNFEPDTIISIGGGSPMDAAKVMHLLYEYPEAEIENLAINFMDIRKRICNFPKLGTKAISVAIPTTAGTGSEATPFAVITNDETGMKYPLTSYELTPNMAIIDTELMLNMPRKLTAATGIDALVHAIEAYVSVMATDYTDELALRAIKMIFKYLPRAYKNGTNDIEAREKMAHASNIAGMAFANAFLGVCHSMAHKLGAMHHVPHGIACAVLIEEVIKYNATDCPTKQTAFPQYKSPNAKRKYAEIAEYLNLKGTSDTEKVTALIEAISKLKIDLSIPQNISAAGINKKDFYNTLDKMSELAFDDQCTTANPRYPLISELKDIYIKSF
# [4] = 100 μM NADH, 100 mM Tris, 1 mM DTT, pH 7.5, 30° C., mean±s.e. (n=3)
Compound,"kcat [1, 4]",preference for acetaldehyde over butyraldehyde ([1]; from Table 4),"kcat [2, 4]",preference (specificity) for butyryl-CoA over acetyl-CoA ([2]; from Table 4),"kcat [3, 4]",preference for butyryl-CoA over acetyl-CoA ([3]; from Table 4)
CC=O [acetaldehyde],5.6 ± 0.1 s⁻¹,1.7 fold,–,–,–,–
CCCC(=O)SCCNC(=O)CCNC(=O)[C@H](O)C(C)(C)COP(=O)(O)OP(=O)(O)OC[C@H]1O[C@@H](n2cnc3c(N)ncnc32)[C@H](O)[C@@H]1OP(=O)(O)O [butyryl-CoA],–,–,0.11 ± 0.01 s⁻¹,73 fold,1.2 ± 0.1 s⁻¹,8.5 fold
